{"source": "PubChem BioAssay AID248", "about": "(DTP/NCI, 2004)", "system": "L1210 leukemia ip in BDF1 mice, survival T/C", "experiment": "NCI In Vivo Anticancer Drug Screen. Data for tumor model L1210 Leukemia (intraperitoneal) in B6D2F1 (BDF1) mice", "settings": "endpoint: mean survival time, higher = longer survival", "summary_of_the_method": "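Transplantable tumor model; survival measured in treated vs vehicle control mice. Value = treated/control.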", "key": {"[1]": {"settings": "dose: 100.0 mg/kg/injection, schedule: Q04DX003 (ip), vehicle: Klucel (hydroxypropylcellulose) (HPC)"}, "[2]": {"settings": "dose: 200.0 mg/kg/injection, schedule: Q04DX003 (ip), vehicle: Klucel (hydroxypropylcellulose) (HPC)"}, "[3]": {"settings": "dose: 400.0 mg/kg/injection, schedule: Q04DX003 (ip), vehicle: Klucel (hydroxypropylcellulose) (HPC)"}, "[4]": {"settings": "dose: 100.0 mg/kg/injection, schedule: Q01DX009 (ip), vehicle: Klucel (hydroxypropylcellulose) (HPC)"}, "[5]": {"settings": "dose: 200.0 mg/kg/injection, schedule: Q01DX009 (ip), vehicle: Klucel (hydroxypropylcellulose) (HPC)"}, "[6]": {"settings": "dose: 400.0 mg/kg/injection, schedule: Q01DX009 (ip), vehicle: Klucel (hydroxypropylcellulose) (HPC)"}}, "note": "Toxic doses and inconclusive results are not listed.", "data": [{"compound": "N/C=N/O", "values": [{"measurement": "T/C", "setting": "dose: 12.5 mg/kg/injection, schedule: Q01DX009 (ip), vehicle: saline", "value": "105 % of control"}, {"measurement": "T/C", "setting": "dose: 25.0 mg/kg/injection, schedule: Q01DX009 (ip), vehicle: saline", "value": "105 % of control"}, {"measurement": "T/C", "setting": "dose: 50.0 mg/kg/injection, schedule: Q01DX009 (ip), vehicle: saline", "value": "111 % of control"}, {"measurement": "T/C", "setting": "dose: 100.0 mg/kg/injection, schedule: Q01DX009 (ip), vehicle: saline", "value": "111 % of control"}, {"measurement": "T/C", "setting": "dose: 100.0 mg/kg/injection, schedule: Q04DX003 (ip), vehicle: saline", "value": "101 % of control"}, {"measurement": "T/C", "setting": "dose: 200.0 mg/kg/injection, schedule: Q01DX009 (ip), vehicle: saline", "value": "121 % of control"}, {"measurement": "T/C", "setting": "dose: 200.0 mg/kg/injection, schedule: Q04DX003 (ip), vehicle: saline", "value": "111 % of control"}, {"measurement": "T/C", "setting": "dose: 400.0 mg/kg/injection, schedule: Q01DX009 (ip), vehicle: saline", "value": "158 % of control"}, {"measurement": "T/C", "setting": "dose: 400.0 mg/kg/injection, schedule: Q04DX003 (ip), vehicle: saline", "value": "97 % of control"}]}, {"compound": "CCOC(=O)Cc1cnc(SC)nc1N", "values": [{"measurement": "T/C", "setting": "[1]", "value": "95 % of control"}, {"measurement": "T/C", "setting": "[2]", "value": "94 % of control"}, {"measurement": "T/C", "setting": "[3]", "value": "87 % of control"}]}, {"compound": "COc1ccc(C(=O)/C=C/c2ccc3c(c2)OCO3)cc1OC", "values": [{"measurement": "T/C", "setting": "[4]", "value": "87 % of control"}, {"measurement": "T/C", "setting": "[1]", "value": "98 % of control"}, {"measurement": "T/C", "setting": "[5]", "value": "90 % of control"}, {"measurement": "T/C", "setting": "[2]", "value": "98 % of control"}, {"measurement": "T/C", "setting": "[6]", "value": "90 % of control"}, {"measurement": "T/C", "setting": "[3]", "value": "96 % of control"}]}, {"compound": "ClC1(Cl)C2CCC3(CC21)OCCO3", "note": "(stereo not drawn)", "values": [{"measurement": "T/C", "setting": "dose: 50.0 mg/kg/injection, schedule: Q04DX003 (ip), vehicle: Klucel (hydroxypropylcellulose) (HPC)", "value": "115 % of control"}, {"measurement": "T/C", "setting": "dose: 100.0 mg/kg/injection, schedule: Q01DX001 (ip), vehicle: Klucel (hydroxypropylcellulose) (HPC)", "value": "114 % of control"}, {"measurement": "T/C", "setting": "[1]", "value": "103 % of control"}, {"measurement": "T/C", "setting": "dose: 200.0 mg/kg/injection, schedule: Q01DX001 (ip), vehicle: Klucel (hydroxypropylcellulose) (HPC)", "value": "106 % of control"}, {"measurement": "T/C", "setting": "[2]", "value": "93 % of control"}, {"measurement": "T/C", "setting": "dose: 400.0 mg/kg/injection, schedule: Q01DX001 (ip), vehicle: Klucel (hydroxypropylcellulose) (HPC)", "value": "101 % of control"}, {"measurement": "T/C", "setting": "[3]", "value": "106 % of control"}]}, {"compound": "Cc1cc(C)n(/N=C/c2ccccc2[N+](=O)[O-])c(=O)c1C#N", "values": [{"measurement": "T/C", "setting": "[4]", "value": "91 % of control"}, {"measurement": "T/C", "setting": "[1]", "value": "102 % of control"}, {"measurement": "T/C", "setting": "[5]", "value": "92 % of control"}, {"measurement": "T/C", "setting": "[2]", "value": "93 % of control"}, {"measurement": "T/C", "setting": "[6]", "value": "92 % of control"}, {"measurement": "T/C", "setting": "[3]", "value": "96 % of control"}]}, {"compound": "CC1CCCC(C)(C)C1NCc1cc(Br)cc(Br)c1O", "note": "(stereo not drawn)", "values": [{"measurement": "T/C", "setting": "[4]", "value": "107 % of control"}, {"measurement": "T/C", "setting": "[6]", "value": "88 % of control"}]}, {"compound": "ICC1OCOC2C(CI)OCOC12", "note": "(stereo not drawn)", "values": [{"measurement": "T/C", "setting": "dose: 100.0 mg/kg/injection, schedule: Q01DX001 (ip), vehicle: other", "value": "103 % of control"}, {"measurement": "T/C", "setting": "dose: 200.0 mg/kg/injection, schedule: Q01DX001 (ip), vehicle: other", "value": "93 % of control"}, {"measurement": "T/C", "setting": "dose: 400.0 mg/kg/injection, schedule: Q01DX001 (ip), vehicle: other", "value": "103 % of control"}]}, {"compound": "c1ccc(NC(c2ccccc2)C(Nc2ccccc2)(c2ccccc2)c2ccccc2)cc1", "note": "(stereo not drawn)", "values": [{"measurement": "T/C", "setting": "dose: 100.0 mg/kg/injection, schedule: Q04DX003 (ip), vehicle: other", "value": "89 % of control"}, {"measurement": "T/C", "setting": "dose: 200.0 mg/kg/injection, schedule: Q04DX003 (ip), vehicle: other", "value": "94 % of control"}, {"measurement": "T/C", "setting": "dose: 400.0 mg/kg/injection, schedule: Q04DX003 (ip), vehicle: other", "value": "87 % of control"}]}, {"compound": "C1CC2CN(CCCN3CCOCC3)C(C1)O2", "note": "(stereo not drawn)", "values": [{"measurement": "T/C", "setting": "dose: 50.0 mg/kg/injection, schedule: Q01DX001 (ip), vehicle: saline", "value": "95 % of control"}, {"measurement": "T/C", "setting": "dose: 100.0 mg/kg/injection, schedule: Q01DX001 (ip), vehicle: saline", "value": "101 % of control"}, {"measurement": "T/C", "setting": "dose: 200.0 mg/kg/injection, schedule: Q01DX001 (ip), vehicle: saline", "value": "101 % of control"}, {"measurement": "T/C", "setting": "dose: 400.0 mg/kg/injection, schedule: Q01DX001 (ip), vehicle: saline", "value": "97 % of control"}]}]}
